Antagonistic activities, binding affinities and nH data for 4 compounds are collected here from patent EP4431512A1, “NOVEL DUAL NK-1/NK-3 RECEPTOR ANTAGONISTS” (Bayer Consumer Care AG, priority 2023, dated 2024).

The target in assay [1] is T1, NK1 receptors (Homo sapiens, UniProt P25103). Briefly: NK1 receptor functional assay (antagonist effect, intracellular Ca2+, fluorimetry). The format is cell-based. Details: Human astrocytoma U373MG cells do endogenously express NK1 receptors; endogenous in cells; host or cells: U373MG human astrocytoma cells. The settings on record: result in words. Here is the method:
(§1) Cellular antagonist effect was calculated as a %-inhibition of reference agonist response for each target.
Human NK1 receptor antagonistic activity assays were performed by measuring antagonistic effects of the compounds of the formula on the reduction agonist induced intracellular [Ca^2+] calcium concentrations in the human astrocytoma cell line U373MG using fluorimetric detection. Human astrocytoma U373MG cells do endogenously express NK1 receptors and were used in the assay according to Eistetter, H.R. et al. (1992), Glia, 6: 89-95 and [Sar^9,Met(O2)^11]-Substance P was used as agonistic stimulus of the NK1 receptor in the cells and assay. Relevant particulars of the assay are outlined in the table below.
(§2) For the antagonists, the apparent dissociation constants (KB ) were calculated using the modified Cheng Prusoff equation KB = (IC50)/(1 + (A/EC50A)) [formula] where A = concentration of reference agonist in the assay, and EC50A = EC50 value of the reference agonist.

For assay [2], the target named is T2, Human NK3 receptor (Homo sapiens, UniProt P29371).
T2 sequence (P29371 1-465): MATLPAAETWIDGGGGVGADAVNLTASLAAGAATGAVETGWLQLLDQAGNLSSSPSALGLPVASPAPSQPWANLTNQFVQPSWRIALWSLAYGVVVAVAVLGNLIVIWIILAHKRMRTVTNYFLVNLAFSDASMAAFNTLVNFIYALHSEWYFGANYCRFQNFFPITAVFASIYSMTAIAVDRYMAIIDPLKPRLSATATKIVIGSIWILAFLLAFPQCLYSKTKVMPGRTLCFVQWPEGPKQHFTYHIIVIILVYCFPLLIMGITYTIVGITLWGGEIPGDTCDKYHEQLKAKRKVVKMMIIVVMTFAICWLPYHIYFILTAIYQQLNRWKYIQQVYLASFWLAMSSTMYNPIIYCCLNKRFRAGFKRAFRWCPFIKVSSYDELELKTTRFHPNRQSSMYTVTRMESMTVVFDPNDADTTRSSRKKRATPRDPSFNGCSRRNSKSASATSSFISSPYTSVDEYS
Nature of the assay: NK3 receptor binding assay (antagonist radioligand, scintillation counting). Details: expressed in transfected cells; host or cells: CHO cells (membrane preparations). Conditions: for binding affinities: result in words, human NK3 receptors; for nH: NK3(h) (antagonist radioligand), Hill coefficient of competition curve.
Experimental: Compound binding was calculated as a %-inhibition of the binding of a radioactively labeled ligand specific for each target.
NK3 receptor binding affinities of the compounds of the invention were determined by an scintillation counting and using membrane preparations of CHO cells recombinantly expressing human NK3 receptors (as described by Sarau, H.M. et al. (1997), J. Pharmacol. Exp. Ther., 281: 1303-1311).
The results are expressed as a percent of control specific binding (measured specific binding)/(control specific binding)*100 [formula] and as a percent inhibition of control specific binding 100−((measured specific binding)/(control specific binding)*100) [formula] obtained in the presence of the test compounds.
The IC50 values (concentration causing a half-maximal inhibition of control specific binding) and Hill coefficients (nH) were determined by non-linear regression analysis of the competition curves generated with mean replicate values using Hill equation curve fitting Y = D + [(A−D)/(1 + ((C/C50))^nH)] [formula] where Y = specific binding, A = left asymptote of the curve, D = right asymptote of the curve, C = compound concentration, C50 =IC50, and nH = slope factor. This analysis was performed using software developed at Cerep (Hill software) and validated by comparison with data generated by the commercial software SigmaPlot® 4.0 for Windows® (^© 1997 by SPSS Inc.).
The inhibition constants (Ki) were calculated using the Cheng Prusoff equation Ki = (IC50)/((1+L/KD)) [formula] where L = concentration of radioligand in the assay, and KD = affinity of the radioligand for the receptor. A scatchard plot is used todetermine the KD.

Assay [3] addresses T2, Human NK3 receptor. Briefly: NK3 receptor functional assay (antagonist effect, intracellular Ca2+, fluorimetry). It is filed as cell-based. Also on record: expressed in transfected cells; host or cells: CHO cells. Conditions: result in words; human NK3 receptors. Here is the method: as §1
Human NK3 receptor antagonistic activity was determined by measuring antagonistic effects of the compounds of the formula on the reduction of agonist induced intracellular [Ca^2+] concentrations in CHO cells recombinantly expressing […] using an fluorimetric detection method. The assay was adapted from Medhurst, A.D. et al. (1999), Brit. J. Pharmacol., 128: 627-636. As an agonist to induce intracellular [Ca^2+] [MePhe^7]-NKB was used as outlined in the overview table below.
as §2

Assay [4] deals with T1, NK1 receptors. Briefly: NK1 receptor binding assay (agonist radioligand, scintillation counting). Conditions: NK1(h) (agonist radioligand); Hill coefficient of competition curve. Also on record: that is endogenously expressing human NK1 receptors; endogenous in cells; host or cells: U373 MG human astrocytoma cells (membrane preparations). The text has this: A scatchard plot is used todetermine the KD.

T1 sequence (P25103 whole entry): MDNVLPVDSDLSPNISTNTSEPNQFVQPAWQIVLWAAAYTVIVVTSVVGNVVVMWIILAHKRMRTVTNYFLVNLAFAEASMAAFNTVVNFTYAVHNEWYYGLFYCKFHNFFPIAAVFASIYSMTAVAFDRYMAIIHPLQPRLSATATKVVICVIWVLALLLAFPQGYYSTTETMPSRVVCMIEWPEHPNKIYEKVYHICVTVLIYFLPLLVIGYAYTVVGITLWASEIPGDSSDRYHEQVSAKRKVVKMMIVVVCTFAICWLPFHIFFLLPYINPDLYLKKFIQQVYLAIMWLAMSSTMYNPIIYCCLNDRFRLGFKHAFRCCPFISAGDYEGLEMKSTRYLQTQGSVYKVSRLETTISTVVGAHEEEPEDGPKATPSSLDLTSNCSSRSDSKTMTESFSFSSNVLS

For `Cc1cc(F)ccc1-c1cc(N2C[C@H]3COCC[N+]3([O-])C[C@H]2CO)ncc1N(C)C(=O)C(C)(C)c1cc(C(F)(F)F)cc(C(F)(F)F)c1` (stereo partly drawn) [compound of formula (II), N-[6-[(7S,9aS)-7-(hydroxymethyl)-5-oxido-3,4,6,7,9,9a-hexahydro-1H-pyrazino[2,1-c][1,4]oxazin-5-ium-8-yl]-4-(4-fluoro-2-methyl-phenyl)-3-pyridyl]-2-[3,5-bis(trifluoromethyl)phenyl]-N,2-dimethyl-propanamide], the antagonistic activities entry at NK1 receptors [1] and on Human NK3 receptor [3] was “significant” in each case. On Human NK3 receptor [2], the binding affinities entry is “significant”.

For `CC1CN2C[C@@H](CO)N(c3cc(-c4ccc(F)cc4CO)c(N(C)C(=O)C(C)(C)c4cc(C(F)(F)F)cc(C(F)(F)F)c4)cn3)C[C@H]2CO1` (stereo partly drawn) [compound of formula (III), 2-[3,5-bis(trifluoromethyl)phenyl]-N-{4-[4-fluoro-2-(hydroxymethyl)phenyl]-6-[(7S,9aS)-7-(hydroxymethyl)-3-methylhexahydropyrazino[2,1-c][1,4]oxazin-8(1H)-yl]pyridin-3-yl}-N,2-dimethylpropanamide], the nH on NK1 receptors [4] and at Human NK3 receptor [2] was 1 each time. Moreover, the antagonistic activities entry on NK1 receptors [1] and at Human NK3 receptor [3] was “significant” in each case. Also, the binding affinities entry at Human NK3 receptor [2] is given as “significant”.

Consider `Cc1cc(F)ccc1-c1cc(N2C[C@H]3COC(C)CN3C[C@H]2CO)ncc1N(C)C(=O)C(C)(C)c1cc(C(F)(F)F)cc(C(F)(F)F)c1` (stereo partly drawn) [compound of formula (IV), 2-[3,5-bis(trifluoromethyl)phenyl]-N-{4-(4-fluoro-2-methylphenyl)-6-[(7S,9aS)-7-(hydroxymethyl)-3-methylhexahydropyrazino[2,1-c][1,4]oxazin-8(1H)-yl]pyridin-3-yl}-N,2-dimethylpropanamide], for which the nH at NK1 receptors [4] was 1.2; at Human NK3 receptor [2] it was 1.3. The antagonistic activities entry on NK1 receptors [1] and on Human NK3 receptor [3] was “significant” each time. Also, the binding affinities entry at Human NK3 receptor [2] is on record as “significant”.

As to `CN(C(=O)C(C)(C)c1cc(C(F)(F)F)cc(C(F)(F)F)c1)c1cnc(N2C[C@H]3COCCN3C[C@H]2CO)cc1-c1ccc(F)cc1CO` [compound of formula (V), 2-[3,5-bis(trifluoromethyl)phenyl]-N-{4-[4-fluoro-2-(hydroxymethyl)phenyl]-6-[(7S,9aS)-7-(hydroxymethyl)hexahydropyrazino[2,1-c][1,4]oxazin-8(1H)-yl]pyridin-3-yl}-N,2-dimethylpropanamide], the antagonistic activities result on NK1 receptors [1] and at Human NK3 receptor [3] was “significant” in each case. At Human NK3 receptor [2], the binding affinities entry is “significant”.
